Reference: ChEMBL document CHEMBL1156618, “Design, synthesis and in vitro antitumor activity of 4-aminoquinoline and 4-aminoquinazoline derivatives targeting EGFR tyrosine kinase” (Bioorg Med Chem, 2008)
The source made the active and inactive calls. The calls are words filed in the database; no cut-off is given here.

Test system: MCF7
Test: Cytotoxicity against human MCF7 cells after 48 hrs by SRB assay
Format: functional, cell-based

SMILES	IC50	Activity
CCOc1ccc2nc(C)cc(N3CCN(C(=O)c4ccco4)CC3)c2c1	4.31 µM	–
COc1cc2nc(Cl)nc(N3CCN(S(=O)(=O)c4ccc(C)cc4)CC3)c2cc1OC	1.08 µM	–
CCOc1ccc2nc(C)cc(Nc3ccc(S(=O)(=O)Nc4nccs4)cc3)c2c1	–	inactive
CCOc1ccc2nc(C)cc(Nc3ccc(S(=O)(=O)Nc4cc(C)on4)cc3)c2c1	13.8 µM	–
CCOc1ccc2nc(C)cc(Nc3ccc(S(=O)(=O)NC(=N)N)cc3)c2c1	19.2 µM	–
CCOc1ccc2nc(C)cc(Nc3cccc(O)c3)c2c1	2.84 µM	–
CCOc1ccc2nc(C)cc(Nc3cc(OC)c(OC)cc3C(=O)OC)c2c1	1.67 µM	–
COc1cc2nc(Cl)nc(Nc3ccc(S(=O)(=O)Nc4nccs4)cc3)c2cc1OC	0.13 µM	–
COc1cc2nc(Cl)nc(Nc3ccc(S(=O)(=O)Nc4cc(C)on4)cc3)c2cc1OC	1.98 µM	–
CCOc1ccc2nc(C)cc(Nc3ccc(S(=O)(=O)Nc4ncccn4)cc3)c2c1	3.96 µM	–
CCOc1ccc2nc(C)cc(Nc3ccc(Cl)cc3Cl)c2c1	4.38 µM	–
